Source: patent publication US20120124703A1, “NOVEL COPRINUS COMATUS AND TREMELLA MESENTERICA MUSHROOM STRAINS, PRODUCTS AND EXTRACTS THEREOF AND COMPOSITIONS COMPRISING THEM” (PALMED TEVA LTD, priority 2009, published 2012)

Assays:
[1] = Antioxidant activity, β-carotene bleaching method; type: biochemical
Protocol: β-Carotene Bleaching Method. The antioxidant activity of C. comatus extracts was determined according to the β-carotene bleaching method. A reagent mixture containing 1 ml of (3-carotene (Sigma) solution (0.2 mg/ml in chloroform), 0.02 ml of linoleic acid (Sigma), and 0.2 ml of Tween 80 (Sigma) was evaporated to dryness under a nitrogen stream. Fifty milliliters of oxygenated distilled water and 0.2 ml of mushroom crude extracts (either ethanol or culture liquid) with different concentrations (2-8 mg/ml) were added. Pure methanol or water (0.2 ml) was used as the control, and the blank contained all the earlier chemicals except β-carotene. All these mixtures were then shaken to form a liposome solution and then incubated at 50° C. for 2 h. The absorbance of an aliquot (1 ml) of these liposome solutions at 470 nm was monitored by a spectrophotometer at time intervals of 20 min. Butylated hydroxyanisole (BHA) (Sigma) (2 mg/ml in methanol) was used as the standard. […] The bleaching rate (R) of 13-carotene was calculated according to
where: ln—natural log, a—absorbance at time 0, b—absorbance at time t, and t—incubation interval 20, 40, 60, 80, 100, or 120 min.
The antioxidant activity (AOA) was calculated, in terms of percent inhibition relative to the control, using Equation (2) […]

[2] = Scavenging activity on DPPH radicals; type: biochemical; settings: standard BHA 1 mg/ml
Protocol: Scavenging Activity on 1,1-diphenyl-2-picrylhydrazyl. The scavenging activity of extracts from C. comatus was measured on 1,1-diphenyl-2-picrylhydrazyl (DPPH) radicals. An aliquot of 0.5 ml of 0.1 mM DPPH radical (Sigma) in methanol was added to a test tube with 1 mL of mushroom ethanol or water extract of different concentrations (0.5 to 9 mg/mL). Methanol or water was used instead of the mushroom sample as a control. The reaction mixture was vortex-mixed at room temperature and the absorbance was determined immediately after mixing by measuring at 520 nm with a spectrophotometer. Inhibition of free radicals by DPPH was calculated as follows: I (%)=(Ablank−Asample/Ablank)×100, where I is inhibition (%), Ablank is the absorbance of the control reaction (containing all reagents except the test compound), and Asample is the absorbance of the test compound. The extract concentration providing 50% inhibition (EC50) was calculated from the graph of scavenging activity of radical percentage against extract concentration. Butylated hydroxyanisole (BHA) in concentration of 1 mg/ml methanol was used as the standard. Each value is expressed as mean±standard deviation (n=3).
Free-radical scavenging is one of the known mechanisms by which antioxidants inhibit lipid oxidation. […] The decrease in absorbance is taken as a measure of the extent of radical-scavenging.

For `COc1ccc(O)c(C(C)(C)C)c1` [BHA, Butylated hydroxyanisole], the “Antioxidant activity (%) of water extracts” value ([1]; extract concentration 2.0 mg/mL, BHA 2 mg/mL in methanol) was 98.2%, the “Antioxidant activity (%) of ethanol extracts” value ([1]; extract concentration 2.0 mg/ml, BHA 2 mg/ml in methanol) was 98.2% and the “Scavenging ability (% of inhibition)” value [2] was 92.0%.
